Assay [1] has as its system drug-resistant P. aeruginosa strain. The assay can be described thus: in vivo antibacterial experiment, corneal infection (drug-resistant P. aeruginosa strain). As to conditions: FIGS. 8A-8B. From the text:
(§1) The TCNH eye drop prepared in the above embodiment was used in in vitro antibacterial experiments for Escherichia coli (E. coli), P. aeruginosa, drug-resistant P. aeruginosa, and Candida albicans (C. albicans) and in vivo prevention and treatment experiments for corneal infections caused by P. aeruginosa and drug-resistant P. aeruginosa.

In assay [2] the test system is P. aeruginosa. As to conditions: P. aeruginosa isolated from the ocular surface; cited from earlier work.
The subject of assay [3] is drug-resistant P. aeruginosa. The experiment in a line: in vitro antibacterial experiment of TCNH eye drop. The class given is cell-based, Pseudomonas aeruginosa.
Description: as §1
(§2) FIG. 4 to FIG. 6 show results of the in vitro antibacterial experiments of the TCNH eye drop.

The test system of assay [4] is P. aeruginosa. The experiment in a line: in vitro antibacterial experiment of TCNH eye drop. The class given is cell-based, Pseudomonas aeruginosa.
Description: as §1, §2

Assay [5] concerns P. aeruginosa. The assay can be described thus: in vivo antibacterial experiment, corneal infection (P. aeruginosa). As to conditions: FIGS. 7A-7B.
Description: as §1

Assay [6] concerns Candida albicans (C. albicans). The assay can be described thus: in vitro antibacterial experiment of TCNH eye drop. Type of assay: cell-based.
Description: as §1, §2

The subject of assay [7] is Escherichia coli (E. coli). The assay can be described thus: in vitro antibacterial experiment of TCNH eye drop. The class given is cell-based.
Description: as §1, §2

With gentamicin, in assay [1], the corneal infection result is “significant infection”. For the same compound, the “average resistance rate of P. aeruginosa to the antibiotic” value (“average resistance rate of P. aeruginosa” below) in assay [2] is given as 22%.
On to `NC[C@H]1O[C@H](O[C@H]2[C@H](O)[C@@H](O[C@H]3O[C@H](CO)[C@@H](O)[C@H](N)[C@H]3O)[C@H](N)C[C@@H]2N)[C@H](N)C[C@@H]1O` [tobramycin], for which the corneal infection entry in assay [1] is recorded as “significant infection”.
With `OO` [H2O2, hydrogen peroxide], the “bacterial colonies on plates (plate experiment)” value in assay [3] (FIG. 4), in assay [4] (FIG. 4), in assay [6] (FIG. 4) and in assay [7] (FIG. 4) was “overgrown with bacteria” each time. Also, the “live bacteria stained green / dead bacteria stained red” value is “a large number of live bacteria stained green and a small number of dead bacteria stained red” in assay [3] (FIG. 5); “a large number of live bacteria stained green and a small number of dead bacteria stained red” in assay [4] (FIG. 5); “a large number of live bacteria stained green and a small number of dead bacteria stained red” in assay [6] (FIG. 5); “a large number of live bacteria stained green and a small number of dead bacteria stained red” in assay [7] (FIG. 5). Also, the “bacterial morphology under a scanning electron microscope” value in assay [3] (FIG. 6) is “regular and intact morphology”; in assay [4] (FIG. 6), “regular and intact morphology”; in assay [6] (FIG. 6) it was “regular and intact morphology”; in assay [7] (FIG. 6) it was “regular and intact morphology”. Moreover, the corneal infection entry in assay [5] was “obviously infected”.
For `O=C(O)c1cn(C2CC2)c2cc(N3CCNCC3)c(F)cc2c1=O` [ciprofloxacin], the “average resistance rate of P. aeruginosa” value in assay [2] was 9%.
`CC(C)(O/N=C(\C(=O)N[C@@H]1C(=O)N2C(C(=O)[O-])=C(C[n+]3ccccc3)CS[C@H]12)c1csc(N)n1)C(=O)O` [ceftazidime]: the “average resistance rate of P. aeruginosa” value in assay [2] is given as 13%.

The values are drawn from patent publication US12076443B2, “Preparation method of nanozyme composite-based hybrid hydrogel eye drop” (INSTITUTE OF OPHTHALMOLOGY AFFILIATED TO SHANDONG FIRST …, priority 2022, dated 2024).
